Test results as given in patent publication EP0155244A2, “1-Ethyl-6-fluoro-7-(1H-pirrol-1-yl)-1,4-dihydro-4-oxoquinoline-3-carboxylic acid: preparation and antimicrobial activities” (priority 1985, dated 1985).
Values after ≈ are worked out from the molar mass of the structure shown. Where two headings read alike, the source gives them in different places.

Columns and labels:
Gram-positive bacteria = experiment: In vitro antibacterial activity, summary for Gram-positive bacteria; format: cell-based, Staphylococcus and Streptococcus
Protocol: (§1) Derivatives (1) and (9) were tested for the in vitro antibacterial activities against Gram-positive and Gram-negative bacteria.Nalidixic acid,pipemidic acid,- piromidic acid and enoxacin were used as positive controls for antibacterial activities.
(§2) Minimum inhibitory concentrations (M.I.C.s) were determined using the serial twolfold dilution method; lectures were performed after incubation at 37° for 18 hours.
(§3) For the experiments the substances were dissolved in NaOH 0.1 N(10 mg/ml);further dilutions in the test medium furnished the required concentrations, generally in the range from 0. 05µg/ml to 100 µg/ml.
(§4) The cultures were obtained on B.H.I. (B.B.L.) after 18 hours incubation at 37°.Tests were carried out using Mueller-Hinton agar (B.B.L.) and inocula were 10^4 bacteria.
(§5) Media M.I.C. values nX (c at least 200 max µg/ml) were calculated by the equation [formula] where si is the number of sensitive strains at the given concentration ci and st is the whole number of the sensitive strains.
(§6) Strains with M.I.C.>200µg/ml are regarded as resistant (R) and are expressed in percentage (%) by the equation : [formula] where N is the whole number of tested strains and N is t s the number of sensitive strains.
(§7) The following species of bacteria freshly isolated from various clinical specimens were tested: 16 strains of […], 10 strains of Staphylococcus spp, 15 strains of Streptococcus ovalis,3 strains of Streptococcus spp, 18 strains of Klebsiella pneumoniae,20 strains of Escherichia coli,ll strains of Salmonella spp (3 S.typhi,l S.paratyphi A,S.paratyphi B, 4 S enteritidis, 1 S.wien and S.infantis,42 strains of Proteus spp (28 P.mirabilis, 8 P.vulgaris,3 P.rettgeri,2 P.morganii and 1 Providencia ) and 8 strains of Pseudomonas aeruginosa.

Enterobacteriaceae = experiment: In vitro antibacterial activity, summary for Enterobacteriaceae; format: cell-based
Protocol: as §1, §2, §3, §4, §5
Strains with M.I.C.>200µg/ml are regarded as resistant (R) and are expressed in percentage (%) by the equation : [formula] where N is the whole number of tested strains and N is t s the number of sensitive strains. […]

Salmonella spp = experiment: In vitro antibacterial activity, M.I.C. by serial twofold dilution method on Mueller-Hinton agar; format: cell-based; conditions: 11 strains, pH 7.2, reading 18 h after incubation at 37°C
Protocol: as §1, §2, §3, §4, §5, §6, §7

Staphylococcus spp = experiment: as above; format: cell-based; conditions: 10 strains, pH 7.2, reading 18 h after incubation at 37°C
Protocol: as §1, §2, §3, §4, §5, §6, §7

Streptococcus spp = experiment: as above; format: cell-based; conditions: 3 strains, pH 7.2, reading 18 h after incubation at 37°C
Protocol: as §1, §2, §3, §4, §5, §6, §7

Proteus spp = experiment: as above; format: cell-based
Protocol: as §1, §2, §3, §4, §5, §6, §7

Escherichia coli = experiment: as above; format: cell-based; conditions: E.Coli, 20 strains, pH 7.2, reading 18 h after incubation at 37°C; for MIC: Escherichia coli
Protocol: as §1, §2, §3, §4, §5, §6, §7

Klebsiella pneumoniae = experiment: as above; format: cell-based; conditions: 18 strains, pH 7.2, reading 18 h after incubation at 37°C
Protocol: as §1, §2, §3, §4, §5, §6, §7

Streptococcus ovalis = experiment: as above; format: cell-based; conditions: 15 strains, pH 7.2, reading 18 h after incubation at 37°C
Protocol: as §1, §2, §3, §4, §5, §6, §7

Staphylococcus pyogenes = experiment: as above; format: cell-based; conditions: 16 strains, pH 7.2, reading 18 h after incubation at 37°C; for MIC: Staphylococcus aureus
Protocol: as §1, §2, §3, §4, §5, §6, §7

Pseudomonas aeruginosa = experiment: as above; format: cell-based; conditions: for R% = percentage of resistant strains / MIC: Pseudomonas aeruginosa, 8 strains, pH 7.2, reading 18 h after incubation at 37°C
Protocol: as §1, §2, §3, §4, §5, §6, §7

[1] = read-out: nX̄ = MIC mean values of sensitive strains
[2] = Proteus spp, 42 strains, pH 7.2, reading 18 h after incubation at 37°C
[3] = Proteus spp, 42 strains, pH 7.2, reading 18 h after incubation at 37°C, read-out: nX̄ = MIC mean values of sensitive strains

Compound	R% (resistant strains) (Gram-positive bacteria)	MIC (Salmonella spp; [1])	MIC (Salmonella spp; read-out: range (MIC))	MIC (Staphylococcus spp; [1])	MIC (Staphylococcus spp; read-out: range (MIC))	MIC (Streptococcus spp; [1])	MIC (Streptococcus spp; read-out: range (MIC))	R% = percentage of resistant strains (Proteus spp; [2])	MIC (Proteus spp; [3])	MIC (Escherichia coli; [1])	MIC (Klebsiella pneumoniae; [1])	MIC (Klebsiella pneumoniae; read-out: range (MIC))	MIC (Streptococcus ovalis; [1])	MIC (Streptococcus ovalis; read-out: range (MIC))	MIC (Staphylococcus pyogenes; [1])	MIC (Staphylococcus pyogenes; read-out: range (MIC))	R% = percentage of resistant strains (Pseudomonas aeruginosa)	MIC (Pseudomonas aeruginosa; [1])	R% = percentage of resistant strains (Salmonella spp)	R% = percentage of resistant strains (Escherichia coli)	further results
CCn1cc(C(=O)O)c(=O)c2cc(F)c(-n3cccc3)cc21 [Acid (1), l-Ethyl-6-fluoro-l,4-dihydro-4-oxo-7-(lH-pyrrol-l-yl)quinoline-3-carboxylic acid]	0%	1.3 µg/mL (≈ 4.33 µM)	0.1 to 3.12 µg/mL (≈ 0.333 to 10.4 µM)	1.26 µg/mL (≈ 4.2 µM)	0.1 to 3.12 µg/mL (≈ 0.333 to 10.4 µM)	0.2 µg/mL (≈ 0.666 µM)	0.2 µg/mL (≈ 0.666 µM)	0%	6.46 µg/mL (≈ 21.5 µM)	2 µg/mL (≈ 6.66 µM)	3.4 µg/mL (≈ 11.3 µM)	0.8 to 25 µg/mL (≈ 2.66 to 83.3 µM)	8.4 µg/mL (≈ 28 µM)	0.8 to 100 µg/mL (≈ 2.66 to 333 µM)	1.96 µg/mL (≈ 6.53 µM)	0.1 to 12.5 µg/mL (≈ 0.333 to 41.6 µM)	12.5%	5.6 µg/mL (≈ 18.6 µM)			R% (resistant strains) (Enterobacteriaceae): 0%; range (MIC) (Proteus spp; [2]): <0.1 to 100 µg/mL; activity against Proteus spp (in words) (Proteus spp; from comparative examination of R% and nX data): highly active; MIC (Escherichia coli; read-out: range (MIC)): 0.2 to 12.5 µg/mL (≈ 0.666 to 41.6 µM); activity against Pseudomonas aeruginosa (in words) (Pseudomonas aeruginosa; from comparative examination of R% and nX data, not so active as enoxacin): very active
CCn1cc(C(=O)O)c(=O)c2cnc(N3CCCC3)nc21 [Piromidic acid, piromidic acid]		60.9 µg/mL (≈ 211 µM)		39.1 µg/mL (≈ 135 µM)		10.4 µg/mL (≈ 36.1 µM)	6.25 to 12.5 µg/mL (≈ 21.7 to 43.4 µM)	76%	60 µg/mL (≈ 208 µM)	44.3 µg/mL (≈ 154 µM)			100 µg/mL (≈ 347 µM)		11.2 µg/mL (≈ 38.8 µM)		50%	38.7 µg/mL (≈ 134 µM)	36%	45%	R% = percentage of resistant strains (Staphylococcus spp): 60%; R% = percentage of resistant strains (Klebsiella pneumoniae): 61%; R% = percentage of resistant strains (Streptococcus ovalis): 87%; R% = percentage of resistant strains (Staphylococcus pyogenes): 69%
CCn1cc(C(=O)O)c(=O)c2cnc(N3CCNCC3)nc21 [Pipemidic acid, pipemidic acid]		17.6 µg/mL (≈ 58 µM)		39.1 µg/mL (≈ 129 µM)		75 µg/mL (≈ 247 µM)	25 to 100 µg/mL (≈ 82.4 to 330 µM)	26%	10.8 µg/mL (≈ 35.6 µM)	4.12 µg/mL (≈ 13.6 µM)	3.79 µg/mL (≈ 12.5 µM)		65.6 µg/mL (≈ 216 µM)		36.4 µg/mL (≈ 120 µM)		0%	12.3 µg/mL (≈ 40.6 µM)	9%	30%	R% = percentage of resistant strains (Staphylococcus spp): 30%; R% = percentage of resistant strains (Klebsiella pneumoniae): 22%; R% = percentage of resistant strains (Streptococcus ovalis): 66%; R% = percentage of resistant strains (Staphylococcus pyogenes): 44%; MIC (Pseudomonas aeruginosa; read-out: range (MIC)): 1.56 to 25 µg/mL (≈ 5.14 to 82.4 µM)
CCn1cc(C(=O)O)c(=O)c2cc(F)c(N3CCCC3)cc21 [Acid (9), 1-Ethyl-6-fluoro-1,4-dihydro-4-oxo-7-(pyrrolidin-1-yl) quinoline-3-carboxylic acid]	0%	2.78 µg/mL (≈ 9.14 µM)	0.2 to 6.25 µg/mL (≈ 0.657 to 20.5 µM)	3.98 µg/mL (≈ 13.1 µM)	0.8 to 6.25 µg/mL (≈ 2.63 to 20.5 µM)	2.2 µg/mL (≈ 7.23 µM)	0.4 to 3.12 µg/mL (≈ 1.31 to 10.3 µM)	7%	4.76 µg/mL (≈ 15.6 µM)	3.83 µg/mL (≈ 12.6 µM)	12.7 µg/mL (≈ 41.6 µM)	3.12 to 25 µg/mL (≈ 10.3 to 82.2 µM)	6.2 µg/mL (≈ 20.4 µM)	3.12 to 25 µg/mL (≈ 10.3 to 82.2 µM)	5.95 µg/mL (≈ 19.6 µM)	0.4 to 25 µg/mL (≈ 1.31 to 82.2 µM)	12.5%	9.87 µg/mL (≈ 32.4 µM)		10%	R% (resistant strains) (Enterobacteriaceae): 0%
CCn1cc(C(=O)O)c(=O)c2cc(F)c(N3CCNCC3)nc21 [enoxacin]	0%																				
CCn1cc(C(=O)O)c(=O)c2ccc(C)nc21 [Nalidixic acid, nalidixic acid]		5.2 µg/mL (≈ 22.4 µM)		25.6 µg/mL (≈ 110 µM)			> 100 µg/mL	33%	6.58 µg/mL (≈ 28.3 µM)	12.4 µg/mL (≈ 53.4 µM)	12.9 µg/mL (≈ 55.5 µM)		3.12 µg/mL (≈ 13.4 µM)		100 µg/mL (≈ 431 µM)		50%	5.46 µg/mL (≈ 23.5 µM)	18%	25%	R% = percentage of resistant strains (Staphylococcus spp): 50%; R% = percentage of resistant strains (Streptococcus spp): 100%; R% = percentage of resistant strains (Klebsiella pneumoniae): 22%; R% = percentage of resistant strains (Streptococcus ovalis): 93%; R% = percentage of resistant strains (Staphylococcus pyogenes): 94%
CCn1cc(C(=O)O)c(=O)c2cc(F)c(N3CCNCC3)cc21 [Norfloxacin, norfloxacin]		2.66 µg/mL (≈ 8.33 µM)	0.2 to 12.5 µg/mL (≈ 0.626 to 39.1 µM)	4.79 µg/mL (≈ 15 µM)	0.2 to 25 µg/mL (≈ 0.626 to 78.3 µM)	3.6 µg/mL (≈ 11.3 µM)	1.56 to 6.25 µg/mL (≈ 4.89 to 19.6 µM)	0%	8.1 µg/mL (≈ 25.4 µM)	4.47 µg/mL (≈ 14 µM)	1.93 µg/mL (≈ 6.04 µM)	0.2 to 6.25 µg/mL (≈ 0.626 to 19.6 µM)	17.2 µg/mL (≈ 53.9 µM)	0.8 to 100 µg/mL (≈ 2.51 to 313 µM)	8.64 µg/mL (≈ 27.1 µM)	0.4 to 25 µg/mL (≈ 1.25 to 78.3 µM)	0%	1.42 µg/mL (≈ 4.45 µM)			MIC (Proteus spp; Proteus spp, 42 strains, pH 7.2, reading 18 h after incubation at 37°C, read-out: range (MIC)): 0.2 to 100 µg/mL (≈ 0.626 to 313 µM); MIC (Escherichia coli; read-out: range (MIC)): 0.2 to 25 µg/mL (≈ 0.626 to 78.3 µM); MIC (Pseudomonas aeruginosa; read-out: range (MIC)): 0.4 to 3.12 µg/mL (≈ 1.25 to 9.77 µM)
